From PMC12186490, “Environmental pH controls antimicrobial production by human probiotic Streptococcus salivarius” (Journal of Bacteriology, 2025)

Test system: sar-BGC (sarD) expression in WT SAL
Assay: sarD transcript levels by qRT-PCR after lactate supplementation of WT SAL
Assay type: cell-based, Streptococcus salivarius K12
Conditions: WT SAL at late-exponential growth (A600 ~ 2.0), fresh THY with sodium lactate, 15 minutes; relative to WT-LE growth; three biological replicates
Protocol: Fig 2 SAL upregulates sar-BGC expression in concert with environmental acidification. (A) Wild-type (WT) SAL was grown in THY broth, and samples were collected at the indicated time points. Growth medium pH, sar-BGC (sarD) transcript levels, and bacterial growth by absorption at wavelength 600 nm (A600) were determined. Right y-axes represent fold change in sar-BGC transcript levels (green) and A600 (red), whereas the left y-axis represents pH of the growth medium (black). Fold changes in transcript levels at indicated time points relative to starting culture (time point t = 0 h) are shown. Data are mean ± standard deviation for three biological replicates. (B) WT SAL grown in THY to late-exponential growth phase (LE, A600 ~ 2.0) was harvested by centrifugation, suspended in THY broth adjusted to indicated pH, and incubated for 15 minutes. […] P values assessed by t-test analyses relative to WT LE growth are shown (n.s, not significant; *, P < 0.05; ****, P < 0.0001). […]
SAL and other lactic acid bacteria acidify their environment via lactic acid production during their growth. […] After 15 min incubation, cells were collected and sarD transcript levels in each pH were assessed by quantitative real-time PCR (qRT-PCR). […] To test whether lactate acts as a signal for the induction of sar-BGC expression, we assessed sarD transcript levels in SAL grown in the presence of lactate. […]

CC(O)C(=O)[O-].[Na+] (stereo not shown) [lactate, sodium lactate]
induction of sar-BGC expression (sarD transcript levels): did not induce sar-BGC expression
